The test system of the assay is BDF1 mice, P388 leukemia ip, median survival T/C. Kind of assay: NCI In Vivo Anticancer Drug Screen. Data for tumor model P388 Leukemia (intraperitoneal) in B6D2F1 (BDF1) mice. The conditions noted are these: endpoint: median survival time, higher = longer survival. The gist of the method:
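Reported as T/C, where T is the survival measurement in dosed animals and C the same measurement in vehicle controls.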

Where [1] appears, read: dose: 25.0 mg/kg/injection, schedule: Q01DX009 (ip), vehicle: saline.
The mark [2] stands for this setting: dose: 25.0 mg/kg/injection, schedule: Q04DX003 (ip), vehicle: saline.
[3] abbreviates: dose: 50.0 mg/kg/injection, schedule: Q01DX009 (ip), vehicle: saline.
Setting [4] is: dose: 50.0 mg/kg/injection, schedule: Q04DX003 (ip), vehicle: saline.
[5] abbreviates: dose: 100.0 mg/kg/injection, schedule: Q04DX003 (ip), vehicle: saline.
[6] abbreviates: dose: 50.0 mg/kg/injection, schedule: Q01DX009 (ip), vehicle: saline with Tween-80.
Where [7] appears, read: dose: 25.0 mg/kg/injection, schedule: Q04DX003 (ip), vehicle: saline with Tween-80.
The mark [8] stands for this setting: dose: 50.0 mg/kg/injection, schedule: Q04DX003 (ip), vehicle: saline with Tween-80.
[9] abbreviates: dose: 100.0 mg/kg/injection, schedule: Q01DX009 (ip), vehicle: saline with Tween-80.
Where [10] appears, read: dose: 100.0 mg/kg/injection, schedule: Q04DX003 (ip), vehicle: saline with Tween-80.
Where [11] appears, read: dose: 200.0 mg/kg/injection, schedule: Q01DX009 (ip), vehicle: saline with Tween-80.
The mark [12] stands for this setting: dose: 200.0 mg/kg/injection, schedule: Q04DX003 (ip), vehicle: saline with Tween-80.
The mark [13] stands for this setting: dose: 400.0 mg/kg/injection, schedule: Q01DX009 (ip), vehicle: saline with Tween-80.
The mark [14] stands for this setting: dose: 400.0 mg/kg/injection, schedule: Q04DX003 (ip), vehicle: saline with Tween-80.

Molecules are shown by their SMILES. Where “and” joins values, the source holds several entries; their conditions need not be identical. Equal values may be shown once. Toxic doses and inconclusive results are not listed.

In the case of `CC[n+]1ccc(Nc2ccc(NC(=O)c3ccc(Nc4cc[n+](CC)c5ccc(N)cc45)cc3)cc2)cc1`, the T/C is 115 % of control (dose: 0.02 mg/kg/injection, schedule: Q01DX010 (ip), vehicle: saline); 110 % of control (dose: 0.1 mg/kg/injection, schedule: Q01DX010 (ip), vehicle: saline); 154 % of control (dose: 0.5 mg/kg/injection, schedule: Q01DX009 (ip), vehicle: water); 170 % of control (dose: 0.5 mg/kg/injection, schedule: Q01DX010 (ip), vehicle: saline); 158 % of control (dose: 1.0 mg/kg/injection, schedule: Q01DX009 (ip), vehicle: water); 195 % of control (dose: 1.0 mg/kg/injection, schedule: Q01DX010 (ip), vehicle: saline). For the same compound, the T/C is, setting by setting: (dose: 2.0 mg/kg/injection, schedule: Q01DX009 (ip), vehicle: water) 212 % of control; (dose: 2.0 mg/kg/injection, schedule: Q01DX010 (ip), vehicle: saline) 275 % of control; (dose: 4.0 mg/kg/injection, schedule: Q01DX009 (ip), vehicle: water) 250 % of control; (dose: 4.0 mg/kg/injection, schedule: Q01DX010 (ip), vehicle: saline) 120 % of control; (dose: 8.0 mg/kg/injection, schedule: Q01DX009 (ip), vehicle: water) 116 % of control; (dose: 8.0 mg/kg/injection, schedule: Q01DX010 (ip), vehicle: saline) 100 % of control.

As to `Cc1nc(NN)c(C(N)=O)nc1C`, the T/C runs as follows: (dose: 12.5 mg/kg/injection, schedule: Q01DX009 (ip), vehicle: saline) 97 % of control; under setting [1], 89 % of control; under setting [2], 106 % of control; under setting [3], 93 % of control and 120 % of control; under setting [4], 102 % of control.

On to `NCCc1cnc2ccccc2n1`, for which the T/C is, setting by setting: (dose: 18.0 mg/kg/injection, schedule: Q01DX009 (ip), vehicle: saline) 96 % of control; under setting [1], 100 % of control; under setting [2], 100 % of control; (dose: 37.0 mg/kg/injection, schedule: Q01DX009 (ip), vehicle: saline) 92 % of control; under setting [3], 120 % of control; under setting [4], 100 % of control. For the same compound, the T/C under setting [5] is 100 % of control.

On to `CCOC(=O)/C(C#N)=C/C=C1\C=CC=CN1C`, for which the T/C under setting [6] was 90 % of control.

Consider `COc1ccc2c(c1O)-c1cccc3c1[C@@H](C2)N(CCCl)CC3`, for which the T/C is 161 % of control under setting [7] and 161 % of control under setting [8].

Consider `O=C(Nc1ccccc1)C1=C(Nc2ccccc2)CSC1`, for which the T/C (dose: 25.0 mg/kg/injection, schedule: Q01DX009 (ip), vehicle: saline with Tween-80) is 100 % of control; the T/C under setting [7] was 99 % of control; the T/C under setting [6] is 91 % of control; the T/C under setting [8] was 99 % of control; the T/C under setting [9] is 94 % of control; the T/C under setting [10] is 96 % of control. Besides, the T/C reads like this: under setting [11], 102 % of control; under setting [12], 105 % of control; under setting [13], 110 % of control; under setting [14], 103 % of control.

Consider `CCCCNC(=O)n1nnc2ccccc21`, for which the T/C runs as follows: under setting [6], 89 % of control; under setting [9], 106 % of control; under setting [11], 106 % of control.

On to `O=C(O)/C(=C\c1ccncc1)c1cccc2ccccc12`, for which the T/C was 100 % of control (dose: 50.0 mg/kg/injection, schedule: Q04DX003 (ip), vehicle: Klucel (hydroxypropylcellulose) (HPC)); 100 % of control (dose: 100.0 mg/kg/injection, schedule: Q04DX003 (ip), vehicle: Klucel (hydroxypropylcellulose) (HPC)); 100 % of control (dose: 200.0 mg/kg/injection, schedule: Q04DX003 (ip), vehicle: Klucel (hydroxypropylcellulose) (HPC)).

Turning to `NC(=O)c1cc([N+](=O)[O-])c(Cl)c([N+](=O)[O-])c1`, the T/C by setting is: (dose: 2.5 mg/kg/injection, schedule: Q01DX009 (ip), vehicle: Klucel (hydroxypropylcellulose) (HPC)) 109 % of control; (dose: 5.0 mg/kg/injection, schedule: Q01DX009 (ip), vehicle: Klucel (hydroxypropylcellulose) (HPC)) 109 % of control; (dose: 10.0 mg/kg/injection, schedule: Q01DX009 (ip), vehicle: Klucel (hydroxypropylcellulose) (HPC)) 104 % of control and 105 % of control; (dose: 10.0 mg/kg/injection, schedule: Q04DX003 (ip), vehicle: Klucel (hydroxypropylcellulose) (HPC)) 100 % of control; (dose: 40.0 mg/kg/injection, schedule: Q04DX003 (ip), vehicle: Klucel (hydroxypropylcellulose) (HPC)) 90 % of control.

For `CCSC1(SCC)C(=O)OC2=C(CCCC2)C1N(C)C` (centres undefined), the T/C by setting is: under setting [6], 90 % of control; under setting [9], 103 % of control; under setting [11], 105 % of control.

In the case of `O=C(Nc1cccc(Cl)c1)ON1CCCCC1`, the T/C under setting [6] is 106 % of control, the T/C under setting [9] was 97 % of control and the T/C under setting [11] is 100 % of control.

For `CCOC(=O)C(OCc1ccccc1)(C(=O)OCC)C(C)C`, the T/C runs as follows: under setting [2], 115 % of control; under setting [4], 100 % of control; under setting [5], 105 % of control.

With `COC(=O)C(C)=O`, the T/C was 90 % of control under setting [9], 95 % of control under setting [11] and 90 % of control under setting [13].

Turning to `CC(C)(C)N=Cc1ccccc1O.CC(C)(C)N=Cc1ccccc1O.[Cu]`, the T/C is 100 % of control (dose: 6.25 mg/kg/injection, schedule: Q04DX003 (ip), vehicle: saline); 90 % of control (dose: 12.5 mg/kg/injection, schedule: Q04DX003 (ip), vehicle: saline); 95 % of control under setting [2].

As to `CCCNC(=O)Nc1cc(Cl)ccc1OC`, the T/C was 95 % of control under setting [10] and 95 % of control under setting [14].

Regarding `CCCCC(=O)NN(Cn1c(=S)sc2ccccc21)Cn1c(=S)sc2ccccc21`, the T/C (dose: 12.5 mg/kg/injection, schedule: Q01DX009 (ip), vehicle: Klucel (hydroxypropylcellulose) (HPC)) was 109 % of control; the T/C (dose: 25.0 mg/kg/injection, schedule: Q01DX009 (ip), vehicle: Klucel (hydroxypropylcellulose) (HPC)) was 109 % of control; the T/C (dose: 50.0 mg/kg/injection, schedule: Q01DX009 (ip), vehicle: Klucel (hydroxypropylcellulose) (HPC)) was 272 % of control.

As to `O=C1c2ccccc2C(=O)c2c(O)c(N3CCCCC3)cc(O)c21`, the T/C under setting [3] is 93 % of control; the T/C (dose: 100.0 mg/kg/injection, schedule: Q01DX009 (ip), vehicle: saline) is 97 % of control; the T/C under setting [10] is 98 % of control; the T/C (dose: 200.0 mg/kg/injection, schedule: Q01DX009 (ip), vehicle: saline) was 95 % of control; the T/C under setting [12] is 109 % of control; the T/C (dose: 400.0 mg/kg/injection, schedule: Q01DX009 (ip), vehicle: saline) was 93 % of control. Moreover, the T/C under setting [14] is 106 % of control.

Regarding `CCOC(=O)C(Cc1ccc(N(CCCl)CCCl)cc1)NC(=O)C(Cc1ccc([N+](=O)[O-])cc1)NC(C)=O` (centres undefined), the T/C is 105 % of control (dose: 5.0 mg/kg/injection, schedule: Q04DX003 (ip), vehicle: other); 96 % of control (dose: 10.0 mg/kg/injection, schedule: Q04DX003 (ip), vehicle: other); 99 % of control (dose: 20.0 mg/kg/injection, schedule: Q04DX003 (ip), vehicle: other); 99 % of control (dose: 40.0 mg/kg/injection, schedule: Q04DX003 (ip), vehicle: other).

The values above are taken from PubChem BioAssay AID328 (DTP/NCI, 2004).
